In patent publication US20040171073A1, “Compounds for modulation of cholesterol transport” (Massachusetts Institute of Technology, priority 2002, published 2004):
Read-outs that look alike come from different tables or passages of the source.

Molecular target: T1, murine SR-BI (Mus musculus, UniProt Q61009)
T1 construct: expressed in transfected cells; host or cells: ldlA-7 (LDL receptor deficient Chinese hamster ovary cells)
T1 sequence (Q61009 1-509): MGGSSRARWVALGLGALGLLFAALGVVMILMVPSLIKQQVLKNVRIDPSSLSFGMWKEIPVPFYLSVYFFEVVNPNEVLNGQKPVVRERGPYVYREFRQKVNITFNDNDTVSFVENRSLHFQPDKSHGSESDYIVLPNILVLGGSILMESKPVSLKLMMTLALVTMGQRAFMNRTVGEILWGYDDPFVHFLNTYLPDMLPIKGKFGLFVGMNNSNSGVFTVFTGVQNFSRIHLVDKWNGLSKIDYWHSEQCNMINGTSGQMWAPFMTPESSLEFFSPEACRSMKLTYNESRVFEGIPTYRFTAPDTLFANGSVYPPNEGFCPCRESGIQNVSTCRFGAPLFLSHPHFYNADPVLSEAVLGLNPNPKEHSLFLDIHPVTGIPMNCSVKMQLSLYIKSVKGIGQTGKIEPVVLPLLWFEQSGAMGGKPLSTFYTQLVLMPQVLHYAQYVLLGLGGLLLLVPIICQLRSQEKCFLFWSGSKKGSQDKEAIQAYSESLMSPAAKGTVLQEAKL
Assay: Uptake of DiI from DiI-HDL by ldlA[mSR-BI] cells (high throughput screen and concentration dependence)
Assay type: cell-based

[1] = Test 1, DiI uptake from DiI-HDL, compounds at nominal 10 micromolar, ldlA[mSR-BI] cells
[2] = Test 2, DiI uptake from DiI-HDL, compounds at nominal 10 micromolar, ldlA[mSR-BI] cells

Compound | ENDOHDL Test 1 (Test 1) | ENDOHDL Test 2 (Test 2) | further results
Cc1cc(C)c(/C=N/N=C/c2c(C)cc(C)cc2C)c(C)c1 [MIT 9952-287] | – | – | ENDOHDL Test 1 [1]: 1.18; ENDOHDL Test 2 [2]: 1.32
Cc1cccc(/C=N/Nc2nc(C)nc(C)n2)c1 [MIT 9952-270] | 0.66 | 0.66 | –
C/C(CCS(=O)(=O)c1ccc(C)cc1)=N\NC(N)=S [MIT 9952-225] | 0.56 | 0.59 | –
CCN1/C(=C\C(=O)c2ccc(C)cc2)Sc2ccccc21 [MIT 9952-295] | – | – | ENDOHDL Test 1 [1]: 0.64; ENDOHDL Test 2 [2]: 0.58
C/C(=N\Nc1ccc([N+](=O)[O-])cc1)c1ccc([N+](=O)[O-])cc1 [MIT 9952-245] | 0.54 | 0.64 | –
Nc1ccc(C(=O)Nc2ccc(-c3nc4ccc(NC(=O)c5ccc(N)cc5)c(Cl)c4[nH]3)cc2Cl)cc1 [MIT 9952-208] | 0.57 | 0.55 | –
Nc1ccc(C(=O)Nc2ccc(C3Nc4ccc(SC(=O)c5ccc(N)cc5)c(Cl)c4S3)cc2)cc1 (stereo not drawn) [MIT 9952-144] | 0.56 | 0.56 | –
O=C(NNC(=O)c1cccc2ccccc12)c1ccc(NC(=O)c2cccc3ccccc23)cc1 [MIT 9952-217] | 0.57 | 0.53 | –
COc1ccc(C(=O)Nc2cccc(C(F)(F)F)c2)cc1OC [MIT 9952-259] | 0.59 | 0.55 | –
CC(C)(C)c1ccc(C(=O)Nc2cccc(NC(=O)c3cccc([N+](=O)[O-])c3)c2)cc1 [MIT 9952-331] | – | – | ENDOHDL Test 1 [1]: 0.63; ENDOHDL Test 2 [2]: 0.35
CCc1nnc(N2CCN(c3ncnc4c3cnn4-c3ccccc3)CC2)s1 [MIT 9952-248] | 0.68 | 0.66 | –
O=C(Nc1cc(Sc2nc3ccccc3s2)cc([N+](=O)[O-])c1)c1ccc(F)c(F)c1 [MIT 9952-231] | 0.46 | 0.54 | –
CC(C)(C)c1ccc(C(=O)Nc2ccccc2C(=O)O)cc1 [MIT 9952-48] | 0.68 | 0.49 | –
Cc1ccc(NC(=S)NC(NC(=O)c2ccccc2Cl)C(Cl)(Cl)Cl)cc1 (stereo not drawn) [MIT 9952-332] | – | – | ENDOHDL Test 1 [1]: 0.69; ENDOHDL Test 2 [2]: 0.67
O=C(Nc1ccc(-c2nc3cc(NC(=O)c4ccccc4[N+](=O)[O-])ccc3o2)cc1)c1ccccc1[N+](=O)[O-] [MIT 9952-234] | 0.58 | 0.54 | –
CCN(CC(O)COc1ccccc1C(C)=O)S(=O)(=O)O.[Na+] (stereo not drawn) [MIT 9952-62] | 1.28 | 1.24 | –
O=C(Nc1cccc(NC(=O)c2ccccc2Cl)c1)c1cccc([N+](=O)[O-])c1 [MIT 9952-337] | – | – | ENDOHDL Test 1 [1]: 0.6; ENDOHDL Test 2 [2]: 0.57
CCn1c(C)c(-c2ccccc2)c2cc([N+](=O)[O-])ccc21 [MIT 9952-257] | 0.66 | 0.61 | –
CCN(CC)CC(=O)Nc1ccc2c(c1)N(C(=O)c1ccccc1)c1ccccc1CC2.Cl [MIT 9952-178] | 0.4 | 0.38 | –
C/C(=C\C(=O)NCCc1c[nH]c2ccccc12)C(=O)O [MIT 9952-76] | 1.25 | 1.26 | –

Compound | ENDOHDL Test 1 (Test 1) | ENDOHDL Test 2 (Test 2) | further results
COc1ccc(N/N=C2\C(=O)ON=C2c2ccc(OC)cc2)cc1 [MIT 9952-272] | 0.61 | 0.51 | –
C/C(CCS(=O)(=O)c1ccc(C)cc1)=N\NC(N)=S [MIT 9952-333] | – | – | ENDOHDL Test 1 [1]: 0.56; ENDOHDL Test 2 [2]: 0.59
CCOC(=O)C1=C(c2ccc(Cl)cc2)C(=O)c2ccccc2C1=O [MIT 9952-315] | – | – | ENDOHDL Test 1 [1]: 0.51; ENDOHDL Test 2 [2]: 0.53
O=C(Cl)c1ccccc1NS(=O)(=O)/C=C/c1ccccc1 [MIT 9952-4] | 1.17 | 1.33 | –
CCOc1ccc2nc3cc(/N=N/c4ccc(N)nc4N)ccc3c(N)c2c1 [MIT 9952-320] | – | – | ENDOHDL Test 1 [1]: 0.54; ENDOHDL Test 2 [2]: 0.83
COc1ccc(COCC(Cl)CN2CCCCC2)cc1OC.Cl (stereo not drawn) [MIT 9952-40] | 1.28 | 1.23 | –
COc1cccc(C(=O)Nc2nc3ccc(Cl)cc3s2)c1 [MIT 9952-289] | – | – | ENDOHDL Test 1 [1]: 0.6; ENDOHDL Test 2 [2]: 0.64
Cc1ccc(NC(=O)c2ccc([N+](=O)[O-])c(C)c2)cc1Cl [MIT 9952-224] | 0.6 | 0.5 | –
O=C(/C=C/c1ccccc1)NC(NC(=S)Nc1cccc([N+](=O)[O-])c1)C(Cl)(Cl)Cl (stereo not drawn) [MIT 9952-100] | 0.5 | 0.51 | –
O=C(Nc1ccc(Cl)cc1C(=O)c1ccc(Cl)cc1)c1cc(Cl)ccc1NS(=O)(=O)c1ccc(Cl)cc1 [MIT 9952-45] | 0.44 | 0.46 | –
NCC[Se][Se]CCN [MIT 9952-318] | – | – | ENDOHDL Test 1 [1]: 0.67; ENDOHDL Test 2 [2]: 0.81
O=C(Cl)CCNC(=O)c1ccccc1 [MIT 9952-18] | 1.21 | 1.22 | –
C#CCOC(=O)CCCC(=O)Nc1ccccc1[N+](=O)[O-] [MIT 9952-191] | 1.27 | 1.98 | –
O=C(O)c1cc(C(=O)O)nc(C(=O)O)c1 [MIT 9952-319] | – | – | ENDOHDL Test 1 [1]: 1.13; ENDOHDL Test 2 [2]: 1.17
O=C(Nc1cc(Cl)ccc1Cl)c1cc(Br)ccc1NS(=O)(=O)c1ccc(Cl)c([N+](=O)[O-])c1 [MIT 9952-132] | – | – | ENDOHDL Test 1: 0.65; ENDOHDL Test 2: 0.46
O=C(O)c1ccc2c(c1)C(=O)N(c1ccc(C(=O)OCC(=O)c3ccccc3)cc1)C2=O [MIT 9952-190] | 1.47 | 1.35 | –
Cl.c1ccc(CCNC2CCCc3c2[nH]c2ccc(C4CCCCC4)cc32)cc1 (stereo not drawn) [MIT 9952-258] | 0.51 | 1.0 | –
Cc1ccc(C(C)C)cc1OCC(=O)N/N=C\c1cc([N+](=O)[O-])ccc1O [MIT 9952-154] | 0.47 | 0.45 | –
Cl.NCCc1nc2ccccc2[nH]1 [MIT 9952-25] | 1.21 | 1.69 | –
O=C(O)c1cc(C(=O)O)nc(C(=O)O)c1 [MIT 9952-60] | 1.13 | 1.17 | –

Compound | ENDOHDL Test 1 (Test 1) | ENDOHDL Test 2 (Test 2) | further results
Cc1c([N+](=O)[O-])cc(C(=O)Nc2cccc(NC(=O)c3ccccc3)c2)cc1[N+](=O)[O-] [MIT 9952-235] | 0.62 | 0.33 | –
O=C(N/N=C/c1cc2c(cc1Br)OCO2)c1cccc(Cl)c1 [MIT 9952-281] | – | – | ENDOHDL Test 1 [1]: 0.59; ENDOHDL Test 2 [2]: 0.34
Cc1nc(O)c(C(c2cc([N+](=O)[O-])ccc2O)c2c(O)nc(C)nc2O)c(O)n1 [MIT 9952-82] | 1.27 | 1.4 | –
O=C(/C=C/C=C(Cl)Cl)c1ccc2c(c1)OCO2 [MIT 9952-298] | – | – | ENDOHDL Test 1 [1]: 1.29; ENDOHDL Test 2 [2]: 1.24
O=C(NC(NC(=S)Nc1cccc2ccccc12)C(Cl)(Cl)Cl)c1cccc([N+](=O)[O-])c1 (stereo not drawn) [MIT 9952-325] | – | – | ENDOHDL Test 1 [1]: 0.56; ENDOHDL Test 2 [2]: 0.49
O=C(NC(NC(=S)Nc1cccc2ccccc12)C(Cl)(Cl)Cl)c1cccc([N+](=O)[O-])c1 (stereo not drawn) [MIT 9952-102] | 0.56 | 0.49 | –
COC(=O)Cn1c2c(c3cc(C)ccc31)CCCC2NC(C)c1ccccc1 (stereo not drawn) [MIT 9952-180] | 0.43 | 0.45 | –
Cc1ccc(NC(=S)NC(NC(=O)c2ccccc2Cl)C(Cl)(Cl)Cl)cc1 (stereo not drawn) [MIT 9952-201] | 0.69 | 0.67 | –
CSc1sc(SC)c(C[n+]2ccccc2)c1C[n+]1ccccc1.[I-].[I-] [MIT 9952-85] | 0.56 | 0.68 | –
Nc1cc2cccnc2c2ncccc12 [MIT 9952-341] | – | – | ENDOHDL Test 1 [1]: 0.61; ENDOHDL Test 2 [2]: 0.51
CCOC(=O)c1c(NC(=O)c2ccc(N)c([N+](=O)[O-])c2)sc2c1CCCC2 [MIT 9952-121] | 0.54 | 0.57 | –
COc1ccc2nc(C(=O)[O-])sc2c1.[Na+] [MIT 9952-14] | 1.24 | 1.21 | –
FC(F)(F)c1cccc(N2N=C(/C=C/c3ccccc3)CC2c2ccccc2)c1 (stereo not drawn) [MIT 9952-147] | 0.63 | 0.53 | –
CCn1c2ccccc2c2cc(/C=N/NC(N)=S)ccc21 [MIT 9952-330] | – | – | ENDOHDL Test 1 [1]: 0.59; ENDOHDL Test 2 [2]: 0.56
Cn1cc(C=O)c2cc(Br)ccc21 [MIT 9952-193] | 0.66 | 0.69 | –
Cc1[nH]c2ccccc2c1-c1c2ccccc2nc2ccccc12 [MIT 9952-183] | 0.59 | 0.65 | –
Cc1cccc(N2C(=O)CC(N3CCOCC3)C2=O)c1 (stereo not drawn) [MIT 9952-80] | 1.34 | 1.2 | –
O=C(COc1ccc(Cl)cc1Cl)Nc1cccc(C(=O)O)c1 [MIT 9952-127] | 0.62 | 0.6 | –
COc1cccc(NC(=O)c2sc(-c3ccccc3)nc2-c2ccc([N+](=O)[O-])cc2)c1 [MIT 9952-118] | 0.51 | 0.63 | –
O=C(Nc1ccc2c(c1)OCO2)c1ccc2ccccc2c1 [MIT 9952-280] | – | – | ENDOHDL Test 1 [1]: 0.75; ENDOHDL Test 2 [2]: 0.67
